Here are results for one molecule from publication PMC11173382, “In Vitro Investigations into the Potential Drug Interactions of Pseudoginsenoside DQ Mediated by Cytochrome P450 and Human Drug Transporters” (Molecules, 2024).

By IC50 is commonly meant the point on the concentration scale where inhibition reaches its midpoint. A low value points to inhibition by little substance.

This data set has as its target T1, hOATP1B3 (Homo sapiens, UniProt Q9NPD5).
T1 sequence (Q9NPD5 1-702): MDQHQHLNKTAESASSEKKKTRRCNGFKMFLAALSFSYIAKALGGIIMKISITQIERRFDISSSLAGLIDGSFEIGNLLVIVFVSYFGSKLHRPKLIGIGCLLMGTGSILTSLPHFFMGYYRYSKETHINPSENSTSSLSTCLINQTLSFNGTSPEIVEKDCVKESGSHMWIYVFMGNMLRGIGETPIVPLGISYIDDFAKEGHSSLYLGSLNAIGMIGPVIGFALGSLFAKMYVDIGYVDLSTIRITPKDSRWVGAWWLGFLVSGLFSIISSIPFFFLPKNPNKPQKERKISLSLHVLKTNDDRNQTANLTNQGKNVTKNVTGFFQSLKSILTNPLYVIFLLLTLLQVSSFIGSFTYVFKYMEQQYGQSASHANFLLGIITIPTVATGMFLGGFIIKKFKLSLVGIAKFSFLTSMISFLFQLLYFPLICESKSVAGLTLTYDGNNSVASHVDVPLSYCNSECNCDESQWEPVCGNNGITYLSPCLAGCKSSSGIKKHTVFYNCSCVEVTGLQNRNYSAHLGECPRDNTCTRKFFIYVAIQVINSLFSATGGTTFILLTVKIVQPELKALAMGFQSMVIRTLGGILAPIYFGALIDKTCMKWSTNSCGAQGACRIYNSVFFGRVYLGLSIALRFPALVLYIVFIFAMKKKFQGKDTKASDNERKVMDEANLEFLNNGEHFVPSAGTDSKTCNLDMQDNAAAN
The data set is described as follows: Substrates uptake assay, HEK293A-OATP1B3 cells (3H-EG). It counts as in vitro ADME. An excerpt: Drug transporters mediate the cellular uptake and efflux of their substrates. Therefore, cell lines overexpressing a drug transporter can be utilized to investigate inhibitors of the transporter by assessing changes in substrate uptake. For each drug transporter, we selected a well-characterized inhibitor as the positive control. Radiolabeled substrates were used to indicate the decrease in transport efficiency when the drug transporters were inhibited by PDQ or the control inhibitors.
The concentrations of the control drugs and the substrates were stated in the assay details. Working solutions of the control inhibitors, the radiolabeled substrates, and each dose of PDQ were prepared at 200 times (200×) more concentrated solutions with DMSO for further dilution.
Transporter-overexpressed cell lines. Human organic anion transporter-overexpressed cell lines MDCKII-OAT1 and S2-OAT3, human organic anion transport polypeptide-overexpressed cell lines HEK293A-OATP1B1 and HEK293A-OATP1B3, human organic cation transporter 2-overexpressed cell line S2-OCT2, and human multi-drug resistance protein MDR1 (or P-gp)-overexpressed cell line MDCKII-MDR1 were gifts from Japan Fuji Biomedical Co., Ltd. (Fuji, Shizuoka Prefecture, Japan). Breast cancer resistance protein-overexpressed vesicles (sf9-BCRP vesicle) were purchased from GenoMembrane Co., Ltd. (Yokohama, Kanagawa, Japan).
Substrates uptake assay. In this assay, we studied the inhibition of PDQ against transporters OAT1, OAT3, OCT2, OATP1B1 and OATP1B3 with MDCKII-OAT1, S2-OAT3, S2-OCT2, HEK293A-OATP1B1and HEK293A-OATP1B3 cells, respectively. The radiolabeled substrates for OAT1, OAT3, OATP1B1, OATP1B3 and OCT2 were […], respectively (Table 5). Probenecid ([…]) was the positive control inhibitor of OAT1 and OAT3, while rifampicin ([…]) served as the control drug of OATP1B1 and OATP1B3. For OCT2, we used […] cimetidine to compare with the inhibitory effect of PDQ. Two times (2×) more concentrated working solutions of the drugs and the substrate were prepared with Dulbecco’s phosphate-buffered saline (DPBS, Gibco, Grand Island, NY, USA.). Then, an equal volume of 2× drug solution and 2× radiolabeled substrate solution were mixed as the working mix. All reagents were pre-warmed to 37 °C.
The cells were digested with 0.05% trypsin/EDTA. The density of the single-cell suspension was adjusted to 2.0 × 10^5 cells/mL for S2 cells and to 1.5 × 10^5 cells/mL for MDCK II and HEK293A cells. The cell suspension was then added to the reservoirs of the 24-well plate for culture until full confluency. The medium in the wells was removed, and the wells were washed with DPBS. Then, the plate was incubated for 10 min with pre-warmed DPBS in the wells. After removing DPBS, […] of working mix was added to each well to initiate the substrate uptake process. The reaction time was 5 min for S2-OCT2 cells, while the other four types of cells were incubated with the reaction mix for 2 min. Cold DPBS was used to terminate the substrate transportation. To each well, […] NaOH ([…]) was added to lyse the cells. Then, […] cell lysate was transferred to the counting vials, and 3 mL scintillation cocktail (Aquasol-2, PerkinElmer, Waltham, MA, USA) was added. […] Each sample was replicated three times (N = 3).
In = [100 × (U − U0)/(Uc − U0)]%(3)
The results were expressed as mean ± standard deviation (SD) and analyzed with GraphPad Prism 8.0 software (CA, USA). The IC50 of PDQ was curve-fitted with the FORECAST function. Statistical significance was calculated using a two-tailed test, and a p value < 0.05 was considered as significant.

`CC(C)(O)[C@@H]1CC[C@@](C)([C@H]2CC[C@]3(C)[C@@H]2[C@H](O)C[C@@H]2[C@@]4(C)CC[C@H](O)C(C)(C)[C@@H]4CC[C@]23C)O1` [PDQ, (20S,24S)-dammar-20,24-epoxy-3β, 12β, 25-triol] returned an IC50 (HEK293A-OATP1B3, 3H-EG 1 µM, 2 min) greater than 30 µM. For the same molecule, the “DPM (3H-EG uptake by OATP1B3)” value (inhibitor 0.1 μM) is given as 3332.7±245.2 DPM; the “DPM (3H-EG uptake by OATP1B3)” value (inhibitor 0.3 μM) was found to be 3200.3±323.1 DPM; the “DPM (3H-EG uptake by OATP1B3)” value (inhibitor 1 μM) is listed as 3093.3±182.0 DPM; the “DPM (3H-EG uptake by OATP1B3)” value (inhibitor 3 μM) was found to be 2980.7±186.5 DPM; the “DPM (3H-EG uptake by OATP1B3)” value (inhibitor 10 μM) is recorded as 2985.0±250.2 DPM; the “DPM (3H-EG uptake by OATP1B3)” value (inhibitor 30 μM) worked out at 2649.0±200.2 DPM.
